According to US9175055B2, “Use of fibromodulin and lumican for increasing muscle mass” (ASSOCIATION FRANCAISE CONTRE LES MYOPATHIES, priority 2011, dated 2015):
“And” between values parts separate entries of the source, which are not always exact repeats. Equal values may be shown once. Values belong to the substance of their own block, whether it stands above or below them.

Columns and labels:
mature myostatin = biological target: T1, mature myostatin (Mus musculus, UniProt O08689); assay: ELISA-type test of direct interaction of biotinylated fibromodulin peptides with coated myostatin; assay type: binding; settings: FIG. 3
T1 sequence (O08689 268-376): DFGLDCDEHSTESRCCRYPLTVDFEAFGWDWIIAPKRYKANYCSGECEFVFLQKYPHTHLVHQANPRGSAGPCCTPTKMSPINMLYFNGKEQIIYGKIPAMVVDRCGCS
Source text: The ELISA test (Enzyme Linked ImmunoSorbent Assay) is a test for detecting and/or assaying a protein present in a biological fluid. In the technique known as “sandwich” assay, the wells of a microtiter plate are covered with a capture antibody capable of binding specifically to the desired antigen. During this operation called “coating”, the capture antibody binds to the plastic of the wells by electrostatic interaction. The capture antibody ensures the specificity of the test. The solution to be tested is then deposited into the wells of the microtiter plate and, if the desired antigen is present, it will bind specifically to the capture antibody. A second antibody, the tracer antibody, capable of binding to the captured antigen is then added to the wells, and the unbound tracer antibodies are eliminated by rinsing. The tracer antibody is coupled to an enzyme catalyzing the formation of a colored product.
The principle of this technique was used to study the direct interaction of the mature myostatin with the peptides 69-101 Fmod Biotin and 69-101 Fmod Biotin mutated (see sequences below). For this, 3 μl of myostatin at a concentration of 100 ng/μl are taken up in 50 μl of carbonate buffer and added to each well of the assay plate (R&D Systems DY990). After an overnight incubation at 4° C., the plate is washed with 100 μl of PBS-Tween (0.05% Tween 20), then the blocking step to saturate non-specific sites is carried out for 2 hours at room temperature with 100 μl of PBS and 6% of milk per well. Five successive washes with 200 μl of PBS-Tween (0.05% Tween 20) are performed and increasing amounts of biotinylated fibromodulin peptides are then deposited (100 μl final in PBS) and the plate is incubated for 1 hour at 37° C. For the positive control, an antibody of goat anti-myostatin (≠AF788, R&D Systems), which was deposited in the control wells and incubated for 1 hour at 1/100th (0.1 mg/ml) was […]. The wells were then washed 5 times with PBS-Tween (0.05% Tween 20). To detect binding of the biotinylated peptides to MSTN, streptavidin-HRP (≠N100, Pierce) was used at 1/20,000th. was added to the wells. For the controls points with the goat anti-myostatin antibody, an HRP-marked (≠ab6885, Abcam) polyclonal secondary donkey anti-goat antibody was added (at 1/4000th)). After five washes, adding the peroxidase substrate, the TMB Substrate Reagent Set (Tetramehylbenzidine, OptEIA, ≠555214) allows the obtention of a colored reaction proportional to the quantity of HRP present in the wells. The reaction is stopped after 20 minutes by addition of sulfuric acid 2N, and the plate is read at 450 nm on a Discovery HT-R spectrophotometer (Bio-TEK).
Buffer Composition: 0.1 M carbonate buffer: 4.2 g NaHCO3, 1.78 g of […] in 500 ml of H20 MilliQ, pH 9,5. Storage at 4° C.

[1] = biological target: T2, recombinant murine myostatin (Mus musculus, UniProt O08689); assay: Inhibition of myostatin activity, pGL3-(CAGA)12-Luc reporter in HEK293T cells; assay type: cell-based; settings: 2.5 nM myostatin, FIG. 1 and 2
T2 sequence (O08689 268-376): T1 sequence (O08689 268-376)
Source text: The plasmidic construction pGL3-(CAGA)12-firefly luciferase (notated pGL3-(CAGA)12-Luc) obtained by MTA of the Pr. Carl-Henrik Heldin (Ludwig Institute for Cancer Research, Sweden) contains 12 CAGA copies of the consensus SBE (Smad Binding Element) consensus sequence and allows to indirectly measure the binding of myostatin to its receptor. Indeed, when myostatin binds to the receptor Activin IIb, the Smad 3 and 4 proteins are activated and will bind to the 12 CAGA copies. The promoter of the cassette pGL3-(CAGA)12-Luc is thus activated, which results in luciferase production. The myostatin/Activin IIb binding can be followed, therefore, by measuring the luciferase.
The ability of the peptides to inhibit the in vitro activity of the myostatin has been evaluated on embryonic human kidney cells 293T by means of the pGL3-(CAGA)12-Luc construction. For this, 350,000 293T cells were placed per well in a 24-well plate. After 24 hours of culture, the cells were transfected with a mixture of 8 μl de PEI (PEI 25 kDa; Sigma) and 2 μg of plasmide pGL3-(CAGA)12-Luc/well. […] Twenty-four hours after transfection, 2.5 nM of recombinant murine myostatin, mixed or not mixed with various quantities of fibromodulin or lumican peptides were added to each well. […] Twenty-four hours after incubation, the cells were lysed, then collected to be assayed for luciferase activity and the quantity of protein.

mdx mice [2] = assay: Muscle weight on D20 after intramuscular injection into Tibialis Anterior of mdx mice; assay type: in vivo; settings: D20, individual mdx mice
Experimental: (§1) Mdx mice (C57BL/10ScSn-DmD^max/J) from colonies maintained at Genethon. Mice aged at least six weeks were used. All experiments were performed in accordance with European ethical rules regarding the use of animals for experimental research.
(§2) Intramuscular injection is performed on animals anesthetized at the tibialis anterior muscle (TA). The injected volume was around 20-35 μl. The injection is performed in the middle of TA Left (TAG). An equal volume of NaCl 150 mM/15 μM ZnCl2 was systematically injected into the right anterior tibialis (TAD) to serve as a control. After a specified number of days after the injection, the TAD and TAG were taken after sacrificing the mice, which were weighed and frozen for histological studies.
The peptide fibromodulin (Fmod, SEQ ID NO: 2) and lumican (mLumican, SEQ ID NO: 5) were dissolved in water and stored at −80° C. For the injections, the preparation procedure is as follows: 24-40 hours before the injection, the desired quantity of peptide is removed from the stock solution and mixed with a solution of zinc chloride (ZnCl2) and 150 mM NaCl so as to have a final concentration of 15 μM of zinc. The peptide was stored at 4° C. until injection. […]
On D20, the mice were sacrificed and the weight of the TAG and TAD muscles was measured.

mdx mice [3] = assay: Comparative muscle hypertrophy 18 days after intramuscular injection of peptides in dystrophic mdx mice; assay type: in vivo; settings: for Hypertrophy %: 18 days after IM injection, average of five mdx mice, TAG versus TAD; for increase in muscular hypertrophy, factor compared to decorin: day 18, mdx mice
Experimental: as §1, §2
The peptide fibromodulin (Fmod, SEQ ID NO: 2) and lumican (mLumican, SEQ ID NO: 5) were dissolved in water and stored at −80° C. For the injections, the preparation procedure is as follows: 24-40 hours before the injection, the desired quantity of peptide is removed from the stock solution and mixed with a solution of zinc chloride (ZnCl2) and 150 mM NaCl so as to have a final concentration of 15 μM of zinc. The peptide was stored at 4° C. until injection.
4/In vivo Comparative Study of Muscle Hypertrophy 18 Days after Injection of Dystrophic mdx Mice with Decorin Peptide (MdCN 31-71, SEQ ID NO: 75), Fibromodulin (mFmod 69-101) or lumican (mLum 30-62):
The TAD and TAG muscles were removed 18 days after injection of the peptides, and then weighed. The experiment was performed on five separate mice.

Substance: Biotine-PPPEPRDCPQEADAPPNFPTAMYADNRNLKYLP- CONH2 [mutated biotin mFmod peptide]
interaction with myostatin (absorbence at 450 nm) (mature myostatin; in the presence of zinc): no interaction is visible

Substance: Biotine-PPPEPRDCPQECDCPPNFPTAMYCDNRNLKYLP-CONH2 [biotinylated mFmod 69-101]
interaction with myostatin (absorbence at 450 nm) (mature myostatin; in the presence of zinc): direct interaction takes place

interaction with myostatin (absorbence at 450 nm) (mature myostatin; in the absence of zinc): no interaction is seen
amount of peptide from which a plateau of absorbence is obtained (mature myostatin; in the presence of zinc): ≥ 4.2 µg
Substance: PPPEPRDCPQECDCPPNFPTAMYCDNRNLKYLP (69-101 mouse fibromodulin Fmod) [mFmod 69-101, fragment corresponding to residues 69-101 of murine fibromodulin]
induction of the pCAGA-Luc promoter (inhibition of myostatin activity) [1]: net inhibition of the promoter in a dose-dependent manner
Weight of injected muscle (TAG) (mdx mice [2]; 50 μg peptide + 15 μM ZnCl2 IM in left Tibialis Anterior): 66.5 mg and 75.4 mg and 74.6 mg and 65.2 mg and 73.9 mg
Growth (TAG versus control TAD) (mdx mice [2]; 50 μg peptide + 15 μM ZnCl2 IM): 22.24% and 5.31% and 19.94% and 5.33% and 12.31%
Hypertrophy % (mdx mice [3]): 29.34 ± 15.76%
increase in muscular hypertrophy, factor compared to decorin (mdx mice [3]): 2.9

Substance: YGQISPNCAPECNCPHSYPTAMYCDDLKLKSVP (30-62 mouse lumican) [mLum 30-62, fragment corresponding to residues 30 to 62 of murin lumican]
induction of the pCAGA-Luc promoter (inhibition of myostatin activity) [1]: net inhibition of the promoter in a dose-dependent manner
Hypertrophy % (mdx mice [3]): 37.26 ± 14.69%
increase in muscular hypertrophy, factor compared to decorin (mdx mice [3]): 3.7

Substance: mDCN 31-71: Decorin Peptide (MdCN 31-71, SEQ ID NO: 75), comparator from prior art WO 2010/106295 (DEASGIIPYDPDNPLISMCPYRCQCHLRVVQCSDLGLDKVP; 31-71 mouse decorin fragment) [reference compound]
Hypertrophy % (mdx mice [3]): 10.02 ± 8.3%
